Source: patent US8217043B2, “Compounds and methods for their use” (Fibrogen, Inc., priority 2008, dated 2012)

The compounds below were run against T1, HIF-PH2 (EGLN1) (Homo sapiens, UniProt Q9GZT9) (assay: HIF-PH assay (14CO2 capture, peptide-dependent turnover)). Details: Concentration 50 μM.
T1 construct: made in house; host or cells: insect Hi5 cells
Type: biochemical
Description: Ketoglutaric acid α-[1-^14C]-sodium salt, alpha-ketoglutaric acid sodium salt, and HPLC purified peptide may be obtained from commercial sources, e.g., Perkin-Elmer (Wellesley Mass.), Sigma-Aldrich, and SynPep Corp. (Dublin Calif.), respectively. Peptides for use in the assay may be fragments of HIFα as described above or as disclosed in International Publication WO 2005/118836, incorporated by reference herein. HIF-PH, e.g., HIF-PH2 (EGLN1), can be expressed in, e.g., insect Hi5 cells, and partially purified, e.g., through a SP ion exchange chromatography column. Enzyme activity is determined by capturing ^14CO2 using an assay described by Kivirikko and Myllyla (1982, Methods Enzymol. 82:245-304). Assay reactions contain 50 mM HEPES (pH 7.4), 100 μM α-ketoglutaric acid sodium salt, 0.30 μCi/mL ketoglutaric acid α-[1-^14C]-sodium salt, 40 μM FeSO4, 1 mM ascorbate, 1541.8 units/mL Catalase, with or without 50 μM peptide substrate and various concentrations of compound of the invention. Reactions are initiated by addition of HIF-PH enzyme.
The peptide-dependent percent turnover is calculated by subtracting percent turnover in the absence of peptide from percent turnover in the presence of substrate peptide. Percent inhibition and IC50 are calculated using peptide-dependent percent turnover at given inhibitor concentrations. Calculation of IC50 values for each inhibitor is conducted using GraFit software (Erithacus Software Ltd., Surrey UK).
Representative compounds of the invention were analyzed using the HIF-PH assay described above. Table 1 presents enzyme inhibition data for exemplary compounds against HIF-PH2, a representative HIF prolyl hydroxylase. By inhibiting HIF prolyl hydroxylase, compounds of the invention stabilize HIFα, which then combines with HIFβ to form an active transcription factor that increases expression of various genes involved in numerous beneficial cellular processes.

T1 sequence (Q9GZT9 whole entry, species assumed): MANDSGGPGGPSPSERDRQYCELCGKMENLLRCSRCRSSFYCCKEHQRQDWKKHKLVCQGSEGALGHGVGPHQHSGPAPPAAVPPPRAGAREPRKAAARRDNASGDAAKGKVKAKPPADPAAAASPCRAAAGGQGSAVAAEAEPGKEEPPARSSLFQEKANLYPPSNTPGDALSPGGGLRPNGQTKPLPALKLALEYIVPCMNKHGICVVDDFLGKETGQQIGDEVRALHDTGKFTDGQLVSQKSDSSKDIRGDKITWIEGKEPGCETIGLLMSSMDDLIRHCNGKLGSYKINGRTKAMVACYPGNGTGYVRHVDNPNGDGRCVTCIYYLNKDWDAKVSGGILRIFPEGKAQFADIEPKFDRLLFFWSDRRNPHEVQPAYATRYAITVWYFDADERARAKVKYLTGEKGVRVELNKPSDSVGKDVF

Row | Compound | inhibition at 50 µM [%]
1 | C[C@H](NC(=O)c1c(O)c2cc3ccccc3n2n(Cc2ccc(F)cc2)c1=O)C(=O)O [Example 19, 2-(S)-{[4-(4-Fluoro-benzyl)-1-hydroxy-3-oxo-3,4-dihydro-4,4a-diaza-fluorene-2-carbonyl]-amino}-propionic acid] | 99
2 | CCCCn1c(=O)c(C(=O)NCC(=O)O)c(O)c2cccn21 [Example 17, [(1-Butyl-4-hydroxy-2-oxo-1,2-dihydro-pyrrolo[1,2-b]pyridazine-3-carbonyl)-amino]-acetic acid] | 97
3 | C[C@H](NC(=O)c1c(O)c2cc(Cl)cn2n(Cc2ccc(C(F)(F)F)cc2)c1=O)C(=O)O [Example 23, 2-(S)-{[6-Chloro-4-hydroxy-2-oxo-1-(4-trifluoromethyl-benzyl)-1,2-dihydro-pyrrolo[1,2-b]pyridazine-3-carbonyl]-amino}-propionic acid] | 98
4 | O=C(O)CNC(=O)c1c(O)c2cc3ccccc3n2n(Cc2ccc(F)cc2)c1=O [Example 18, {[4-(4-Fluoro-benzyl)-1-hydroxy-3-oxo-3,4-dihydro-4,4a-diaza-fluorene-2-carbonyl]-amino}-acetic acid] | 96
5 | O=C(O)CNC(=O)c1c(O)c2cc(Cl)cn2n(Cc2ccc(C(F)(F)F)cc2)c1=O [Example 22, {[6-Chloro-4-hydroxy-2-oxo-1-(4-trifluoromethyl-benzyl)-1,2-dihydro-pyrrolo[1,2-b]pyridazine-3-carbonyl]-amino}-acetic acid] | 98

Second part, the compound after the results:

Row | inhibition at 50 µM [%] | Compound
6 | 98 | C[C@H](NC(=O)c1c(O)c2cccn2n(Cc2ccc(C(F)(F)F)cc2)c1=O)C(=O)O [Example 24, 2-(S)-{[4-Hydroxy-2-oxo-1-(4-trifluoromethyl-benzyl)-1,2-dihydro-pyrrolo[1,2-b]pyridazine-3-carbonyl]-amino}-propionic acid]
7 | 99 | O=C(O)CNC(=O)c1c(O)c2cc3ccc(C(F)(F)F)cc3n2n(Cc2ccc(F)cc2)c1=O [Example 43, {[4-(4-Fluoro-benzyl)-1-hydroxy-3-oxo-6-trifluoromethyl-3,4-dihydro-4,4a-diaza-fluorene-2-carbonyl]-amino}-acetic acid]

Same assay, conditions: Concentration 67 μM

Row | inhibition at 67 µM [%] | Compound
8 | 95 | C[C@H](NC(=O)c1c(O)c2cc(Cl)cn2n(Cc2ccc(F)cc2)c1=O)C(=O)O [Example 27, 2-(S)-{[6-Chloro-1-(4-fluoro-benzyl)-4-hydroxy-2-oxo-1,2-dihydro-pyrrolo[1,2-b]pyridazine-3-carbonyl]-amino}-propionic acid]
9 | 99 | O=C(O)CNC(=O)c1c(O)c2cc(-c3ccccc3)cn2n(Cc2ccc(C(F)(F)F)cc2)c1=O [Example 37, {[4-Hydroxy-2-oxo-6-phenyl-1-(4-trifluoromethyl-benzyl)-1,2-dihydro-pyrrolo[1,2-b]pyridazine-3-carbonyl]-amino}-acetic acid]
10 | 99 | O=C(O)CNC(=O)c1c(O)c2cc(Cl)cn2n(Cc2cccnc2)c1=O [Example 38, [(6-Chloro-4-hydroxy-2-oxo-1-pyridin-3-ylmethyl-1,2-dihydro-pyrrolo[1,2-b]pyridazine-3-carbonyl)-amino]-acetic acid]
11 | 100 | C[C@H](NC(=O)c1c(O)c2cc(Cl)cn2n(Cc2ccc(-c3ccccc3)cc2)c1=O)C(=O)O [Example 35, 2-(S)-[(1-Biphenyl-4-ylmethyl-6-chloro-4-hydroxy-2-oxo-1,2-dihydro-pyrrolo[1,2-b]pyridazine-3-carbonyl)-amino]-propionic acid]
12 | 100 | O=C(O)CNC(=O)c1c(O)c2cc(Cl)cn2n(Cc2ccc(Cl)cc2)c1=O [Example 28, {[6-Chloro-1-(4-chloro-benzyl)-4-hydroxy-2-oxo-1,2-dihydro-pyrrolo[1,2-b]pyridazine-3-carbonyl]-amino}-acetic acid]
13 | 98 | C[C@@H](NC(=O)c1c(O)c2cc(Cl)cn2n(Cc2ccc(-c3ccccc3)cc2)c1=O)C(=O)O [Example 36, 2-(R)-{[6-Chloro-1-(4-phenyl-benzyl)-4-hydroxy-2-oxo-1,2-dihydro-pyrrolo[1,2-b]pyridazine-3-carbonyl]-amino}-propionic acid]

Same assay, conditions: Concentration 125 μM

Row | inhibition at 125 µM [%] | Compound
14 | 94 | O=C(O)CNC(=O)c1c(O)c2cccn2n(Cc2c(F)cccc2F)c1=O [Example 15, {[1-(2,6-Difluoro-benzyl)-4-hydroxy-2-oxo-1,2-dihydro-pyrrolo[1,2-b]pyridazine-3-carbonyl]-amino}-acetic acid]
15 | 97 | O=C(O)CNC(=O)c1c(O)c2cccn2n(Cc2cccc(C(F)(F)F)c2)c1=O [Example 13, {[1-(3-Trifluoromethyl-benzyl)-4-hydroxy-2-oxo-1,2-dihydro-pyrrolo[1,2-b]pyridazine-3-carbonyl]-amino}-acetic acid]
16 | 84 | O=C(O)CNC(=O)c1c(O)c2cccn2[nH]c1=O [Example 4, [(4-Hydroxy-2-oxo-1,2-dihydro-pyrrolo[1,2-b]pyridazine-3-carbonyl)-amino]-acetic acid]

Same assay, conditions: Concentration 200 μM

Row | inhibition at 200 µM [%] | Compound
17 | 100 | O=C(O)CNC(=O)c1c(O)c2cccn2n(Cc2ccc(Cl)cc2)c1=O [Example 11, {[1-(4-Chloro-benzyl)-4-hydroxy-2-oxo-1,2-dihydro-pyrrolo[1,2-b]pyridazine-3-carbonyl]-amino}-acetic acid]
18 | 100 | COc1ccc(Cn2c(=O)c(C(=O)NCC(=O)O)c(O)c3cccn32)cc1 [Example 12, {[1-(4-Methoxy-benzyl)-4-hydroxy-2-oxo-1,2-dihydro-pyrrolo[1,2-b]pyridazine-3-carbonyl]-amino}-acetic acid]
19 | 100 | O=C(O)CNC(=O)c1c(O)c2cccn2n(Cc2ccc3ccccc3c2)c1=O [Example 9, [(4-Hydroxy-1-naphthalen-2-ylmethyl-2-oxo-1,2-dihydro-pyrrolo[1,2-b]pyridazine-3-carbonyl)-amino]-acetic acid]
20 | 98 | CC[C@H](NC(=O)c1c(O)c2cccn2n(Cc2ccc(C(F)(F)F)cc2)c1=O)C(=O)O [Example 25, 2-(S)-{[4-Hydroxy-2-oxo-1-(4-trifluoromethyl-benzyl)-1,2-dihydro-pyrrolo[1,2-b]pyridazine-3-carbonyl]-amino}-butyric acid]
